Measurements published in ChEMBL document CHEMBL1146099, “Anthranilic acid based CCK1 receptor antagonists and CCK-8 have a common step in their "receptor desmodynamic processes"” (J Med Chem, 2006).

biological target: T1, Cholecystokinin receptor type A (Homo sapiens, UniProt P32238); experiment: Displacement of [111In]DTPA-Glu-Gly-[Tyr27(SO3H)]-CCK8 from human CCK1 receptor in A431 cells; assay type: cell-based, A-431
T1 sequence (P32238 whole entry): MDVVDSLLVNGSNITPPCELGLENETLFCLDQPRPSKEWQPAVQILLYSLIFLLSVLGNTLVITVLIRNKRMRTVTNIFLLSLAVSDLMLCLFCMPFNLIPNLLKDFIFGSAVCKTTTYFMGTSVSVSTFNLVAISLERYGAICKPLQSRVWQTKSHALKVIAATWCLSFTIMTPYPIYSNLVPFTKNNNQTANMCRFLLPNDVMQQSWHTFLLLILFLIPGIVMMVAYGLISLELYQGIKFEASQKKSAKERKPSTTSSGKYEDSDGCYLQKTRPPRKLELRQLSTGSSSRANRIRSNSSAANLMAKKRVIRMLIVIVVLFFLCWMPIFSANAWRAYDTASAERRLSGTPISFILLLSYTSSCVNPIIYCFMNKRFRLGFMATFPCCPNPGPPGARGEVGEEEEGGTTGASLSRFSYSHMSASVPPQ

Row | IC50 | Compound
1 | 197 nM | O=C(Nc1ccccc1C(=O)NC(Cc1ccccc1)C(=O)O)c1cc2ccccc2[nH]1 (racemic)
2 | 12700 nM | CC(=O)N/C(=C/c1ccccc1)C(=O)Nc1ccccc1C(=O)NC(Cc1ccccc1)C(=O)O (racemic)
3 | 4000 nM | O=C(/C=C/c1ccccc1)Nc1ccccc1C(=O)NC(Cc1ccccc1)C(=O)O (racemic)
4 | 2800 nM | CC(NC(=O)c1ccccc1NC(=O)c1cc2ccccc2[nH]1)C(=O)O (racemic)
5 | 195 nM | CCCCCN(CCCOC)C(=O)C(CCC(=O)O)NC(=O)c1ccc(Cl)c(Cl)c1 (stereo not given) [LOXIGLUMIDE]
